Here are results for 7 compounds from ChEMBL document CHEMBL4257489, “Recent updates in the discovery and development of novel antimalarial drug candidates” (Medchemcomm, 2018).

Data set [1] relates to Plasmodium berghei. Put plainly: Antimalarial activity against GFP-fused Plasmodium berghei ANKA infected in NMRI mouse assessed as mouse survival at 100 mg/kg, po administered at 4, 24, 48, 72 hrs post infection. The class given is functional.
A short description of data set [2]: Oral bioavailability in C57BL/6 mouse at 100 mg/kg. The settings on record: in vivo. It counts as ADME, organism-based.
Data set [3] relates to Plasmodium berghei. In words: Antimalarial activity against GFP transfected Plasmodium berghei ANKA infected in NMRI mouse assessed as suppression of parasitemia at 100 mg/kg, po administered at 4, 24, 48, 72 hrs post infection measured at 96 hrs post infection by FACS analysis relative to control. The class given is functional. Background: In flow cytometry, cells or beads pass a laser one at a time.

Data set [4] can be described thus: Oral bioavailability in CD1 mouse at 10 mg/kg. The conditions noted are these: in vivo. It counts as ADME, organism-based.
A short description of data set [5]: Half life in CD1 mouse at 2.5 mg/kg, iv. It counts as ADME, organism-based. The settings on record: in vivo.
The subject of another data set is hERG. In words: Selectivity index, ratio of IC50 for human ERG to IC50 for Plasmodium falciparum NF54. It counts as toxicity. The conditions noted are these: read-out: Ratio IC50.
A short description of data set [6]: Oral bioavailability in rat. The class given is ADME, organism-based. The settings on record: in vivo.
Data set [7] has as its system acetylcholinesterase (AChE). Put plainly: Selectivity index, ratio of IC50 for human AchE to IC50 for Plasmodium falciparum NF54. It counts as toxicity. The conditions noted are these: read-out: Ratio IC50.
Data set [8] is described as follows: Oral bioavailability in Sprague-Dawley rat at 17 +/- 0.2 mg/kg administered via gavage as suspension. The class given is ADME, organism-based. The conditions noted are these: in vivo.
The subject of the next data set is Plasmodium falciparum. Put plainly: Antimalarial activity against Plasmodium falciparum 3D7 0087/N9 in NODscid IL-2Rgammanull mouse engrafted with parasite infected human erythrocytes assessed as reduction in parasitemia administered via oral gavage starting from day 3 to day 6 post infection measured every 24 hrs during compound dosing by flow cytometric method. The class given is functional. The settings on record: 3D7 0087/N9, po.

A short description of data set [9]: Oral bioavailability in Sprague-Dawley rat at 20 +/- 0.2 mg/kg administered via gavage as solution. It counts as ADME, organism-based. The settings on record: in vivo.
A short description of data set [10]: Oral bioavailability in mouse at 15 mg/kg. It counts as ADME, organism-based. The settings on record: in vivo.
Data set [11] is described as follows: Oral bioavailability in beagle dog at 3 mg/kg. The settings on record: in vivo. The class given is ADME, organism-based, Canis lupus familiaris.
Data set [12] deals with Plasmodium berghei. Put plainly: Antimalarial activity against GFP transfected Plasmodium berghei in ICR mouse engrafted with parasite infected erythrocytes assessed as reduction in parasitemia administered as po qd for 3 to 5 days post infection measured on day 3 to 30 by Giemsa staining-based microscopic method. It counts as functional.
The nature of data set [13]: Oral bioavailability in beagle dog at 30 mg/kg. The settings on record: in vivo. It counts as ADME, organism-based, Canis lupus familiaris.
Data set [14] in a line: Oral bioavailability in Sprague-Dawley rat at 10 mg/kg administered via gavage. It counts as ADME, organism-based. The conditions noted are these: in vivo.
Data set [15] has as its system Plasmodium berghei. Put plainly: Antimalarial activity against Plasmodium berghei infected in po dosed mouse measured after 3 doses by 4 day peter's test. The conditions noted are these: 96 h. It counts as functional.
The subject of data set [16] is Plasmodium berghei. Put plainly: Antimalarial activity against Plasmodium berghei infected in mouse assessed as cure rate at 30 mg/kg, po relative to control. The class given is functional.
Data set [17] deals with Plasmodium berghei. In words: Antimalarial activity against Plasmodium berghei infected in mouse by Thompson test. It counts as functional.

With `COc1ccc2c(c1)CC[C@@H]1[C@@H]2CC[C@]2(C)[C@H](NCc3cc4ccccc4cc3O)CC[C@@H]12`, the Survival in the data set on Plasmodium berghei [1] came to 27 days. In addition, in data set [2], the bioavailability (commonly dose-corrected exposure relative to a reference, in per cent) is less than 5%. Also, the Activity in the data set on Plasmodium berghei [3] is on record as 99.8%.
For the compound `COc1ccc(NC(=O)N2CCCCN3[C@H](CN(C)C)[C@H](c4ccc(C#Cc5ccccc5)cc4)[C@@H]3C2)cc1`, the bioavailability in data set [4] was determined as 80%. Further, the half-life (commonly how long it takes for the measured level to halve) in data set [5] was 32 h.
Consider `Cc1nc(Nc2ncc(N3CCN(C)[C@H](C)C3)c(Nc3cc(C)n(C)n3)n2)cc(C2CC2)c1F` [SUTIDIAZINE], for which the selectivity ratio (in the data set on hERG; in data set [7]) was more than 1000 each time. The bioavailability in data set [6] was determined as 80%.
Take `N#Cc1cc(NC(=O)[C@H]2c3ccccc3C(=O)N(CC(F)(F)F)[C@@H]2c2cccnc2)ccc1F` [SJ-733]: the bioavailability in data set [8], in data set [9], in data set [10], in [11] and in data set [13] was more than 30% in each case. Further, the ED50 in the data set on Plasmodium falciparum and in the data set with Plasmodium berghei [12] was less than 5 mg/kg in each case.
Turning to `CC1(C)N=C(N)N=C(N)N1OCCCOc1cc(Cl)c(Cl)cc1Cl`, in data set [14], the bioavailability is less than 1%.
On to `FC1CCN(CCOc2ccc(C3CCC4(CC3)OOC3(OO4)C4CC5CC(C4)CC3C5)cc2)CC1` (centres undefined), for which the ED50 – broadly, the dose that gives a 50% effect, or the effect in half of the subjects – in the data set on Plasmodium berghei [15] was found to be 4 mg/kg. The Activity in the data set on Plasmodium berghei [16] was determined as 66%.
With `COc1cc2[nH]c(C)c(-c3ccc(Oc4ccc(OC(F)(F)F)cc4)cc3)c(=O)c2cc1Cl`, the 50% effect level in the data set with Plasmodium berghei [17] (ED50) was put at a dose of 0.016 mg/kg.
